Source: patent US12121525B2, “Methods for treating GI syndrome and graft versus host disease” (Sloan Kettering Institute for Cancer Research, priority 2007, dated 2024)

Key:
C57BL/6 splenocytes = assay: MLR-primed CTL-induced splenocyte lysis (51Cr release); type: cell-based, mouse; conditions: 500 nM
Description: To show the generic role of target cell ASMase in T cell-induced lysis, we used two standardized assays for T cell function; MLR-primed CTL-induced splenocyte lysis (FIG. 17) and in vitro activation-induced cell death (AICD) of T cells (FIG. 18). The role of target cell ASMase was assessed in an in vitro activated MLR, in which C57BL/6 splenocyte target cells of asmase^+/+ or asmase^−/− genotype were stimulated for 48 hrs with mitogen, washed and chromium labeled. These cells were then coincubated with effector Balb/c splenocytes activated for 5 days by culture with irradiated C57BL/6 splenocytes. Chromium release was quantified and the % lysis was calculated. […] Washed splenocytes cells were coincubated with increasing ratios of activated effector Balb/c T cells, and ^51Cr release was quantified 6 hour thereafter. […]
To evaluate a potential generic role for target cell ASMase in platform generation in T cell-induced lysis, we tested two standardized assays for T cell-mediated cytolysis, MLR-primed CTL-induced splenocyte lysis, and in vitro AICD of T cells. […] Furthermore, MLR-primed CTLs induced 43.2±6.5% asmase^+/+ splenocyte lysis at an effector:target ratio of 50:1 (FIG. 19B), attenuated to 7.3±2.5% lysis in asmase^−/− target cells, as quantified by ^51Cr-release assay. […]

C57BL/6 hepatocytes = type: cell-based; conditions: 200 nM, CTL-treated asmase−/− hepatocytes
Description: Whereas Fas-mediated apoptotic death receptor activation requires generation of ceramide-rich platforms in some cell systems, CTL-induced platform generation was assessed in asmase^+/+ and asmase^−/− hepatocytes in the ex vivo model of GvHD. Alloactivated T cells induced rapid generation of ceramide-rich platforms on the surface of the target hepatocytes 10 min following co-incubation (FIG. 16C). Platform generation increased within one minute, peaked at 10 min, and persisted for over 60 min (FIG. 16D). Fas, required for apoptosis in this system, concentrated within the ceramide-rich platform as determined by confocal microscopy.
Platforms were detected as previously described. […]; Sigma-Aldrich) for 45 min at 4° C., washed twice in PBS containing 0.1% Triton X-100 and mounted in fluorescent mounting medium (Dako, Carpenteria CA). Fluorescence was detected using an Axiovert S-100 Zeiss fluorescence microscope equipped with a SPOT digital camera. The percentage of cells containing platforms, i.e. those in which the fluorescence condenses onto less than 15% of the cell surface, was determined by counting 150-250 cells per point. Alternately, platforms were identified using a mouse monoclonal anti-ceramide antibody MID 15B4 IgM (1:50 dilution, Alexis Biochemicals), mouse monoclonal anti-Fas CH-11 IgM (1:500 dilution, Upstate Biotechnology) or polyclonal rabbit anti-ASMase antibody 1598 (1:100 dilution) and detected using Cy3-conjugated anti-mouse or anti-rabbit IgM (1:500 dilution, Roche Molecular Biochemicals), respectively. Rabbit polyclonal anti-CD46 (1:1000 dilution, Santa Cruz Biotechnology, Santa Cruz CA) was used as a negative control. In some studies, confocal images were obtained using a Leica TCS SPZ upright confocal microscope. Alternatively, 0.5×10^6hepatocytes were stimulated for the indicated times with CTLs and platform formation was assessed as described.

CCCCCCCCCCCCC/C=C/[C@@H](O)[C@H](CO)NC(=O)CCCCCCCCCCCCCCC [C16-ceramide]
CTL-induced lysis of asmase−/− target splenocytes (C57BL/6 splenocytes): restored
platform formation, % of cells (C57BL/6 hepatocytes): 46.3±1.3%
